Measurements from patent US6083920A, “Compositions for modulating intracellular inositol trisphosphate concentration” (priority 1996, dated 2000).
“Also recorded” adds a separate entry of the source.

Legend:
[1] = test system: metabotropic glutamate receptor; assay: Behavioral analysis after ICV infusion (quisqualate excitotoxicity); assay type: in vivo, male F344 rats; details: for effective dose: ICV, pilot testing; for death, cases: 120 min
Description: The animals used in this experiment were male F344 rats (Charles River Breeding Laboratories). The animals were housed individually, exposed to a 12-hour light-dark cycle, and allowed free access to food and water. The animals weighed approximately 250 g at the beginning of each experiment and were weighed daily. In addition, the animals were habituated to handling before each experiment.
Before administering various compounds, the animals were anesthetized with sodium pentobarbital (50 mg/kg, i.p.) and positioned in a sterotaxic instrument. A 26 gauge cannula was inserted into the cerebral ventricle at the following co-ordinates: 1.0 mm posterior to bregma, 1.5 mm lateral to the midline, and 4.0 mm below the dorsal surface of the neocortex. Cannulas were capped and fixed in place with dental cement. One week after cannulation, 10 μl of each of the treatment drugs was infused, ICV (i.e. into the ventricals of the brain), via a micropump at a rate of 10 μl/min. For this procedure, the animals were lightly restrained and unanesthetized. Following administration of the compound, the infusion cannula remained in position for one minute, after which the permanent in situ cannula was capped.
The compounds administered were obtained from a commercial supplier (Sigma Chemical Co., St. Louis, Mo.) and dissolved in saline prior to injection. […]
Pilot studies identified several specific behavioral measures that could be used to indicate excessive activation of the metabotropic receptor (see Table 3). […] The experiments that follow were based on an analysis of these behaviors over a two hour period after administration of the compounds of the invention. Behavioral observation was carried out by two trained observers, who worked independently of one another and who were blind to the experimental groups. […] Frequency and duration means were computed by subtracting pre-infusion means from post-infusion means.
Some of the experiments that were performed first were carried out to determine the amount of quisqualate required to produce behavioral and histological changes and the amount of lysosphingolipids that could effectively prevent or reverse these effects. Table 3 outlines the behavioral responses of rats to various doses of quisqualate (injected as described above) and the associated histological changes. The behaviors are listed as they occur chronologically. The limb clasp and reflex tests indicate the degree of decortication. A limb clasp or placement score of zero is normal, and a score of 3 is severely abnormal.
The data shown in Table 4 represents the observations of pilot studies aimed at determining the effect (on behavior) of lysosphingolipids infused directly into the lateral ventricles of the brain 30 minutes prior to infusion of quisqualate.
The experiment began one week after ICV cannulation. Animals (n=6 per group) were randomly allocated to one of 8 treatment groups: (1) saline, (2) quisqualate at 225 nmoles, (3) psychosine at 125 nmoles, (4) lysosphingomyelin at 125 nmoles, (5) lysosphingomyelin at 150 nmoles, (6) quisqualate at 225 nmoles and psychosine at 125 nmoles, (7) quisqualate at 225 nmoles and lysosphingomyelin at 125 nmoles, and (8) quisqualate at 225 nmoles and lysosphingomyelin at 150 nmoles. Following the baseline observation period, animals received the first of two ICV infusions (all infusions were of a 10 μl volume that was administered over a 1 minute period). For the first five groups listed above, this consisted of saline (10 μl/minute), for the following 3 groups the infusions were psychosine at 125 nmoles, lysosphingomyelin at 125 nmoles, or Iysosphingomyelin at 150 nmoles, respectively. Thirty minutes later, all animals received the second infusion which, for the first five groups listed above, consisted of saline, quisqualate at 225 nmoles, psychosine at 125 nmoles, lysosphingomyelin at 125 mrnoles, and lysosphingomyelin at 150 nmoles respectively. […]

[2] = test system: phospholipase C isoforms beta, delta, and gamma; details: for effect on KM for substrate phosphatidylinositol bis-phosphate: 10 μM lysocerebroside, 5 μM lysosphingomyelin
Description: The effects of sphingosine, lysocerebroside, and lysosphingomyelin on the kinetics of pure, immunologically isolated phospholipase C isoforms beta, delta, and gamma (which are commercially available) was examined. For each isoform, 10 μM sphingosine was added to a reaction medium consisting of 1 μg phospholipase C isoform/ml, Tris-malate buffer (50 mM, pH 7.0) containing 100 μM phosphatidyl inositol bis-phosphate tri-ammonium salt, 0.01 μCi tritium labeled phosphatidyl inositol bis-phosphate, 100 mM NaCl, 10 mM CaCl2, and 5 mM 2-merceptoethanol.

[3] = Lysosphingolipid loading of isolated neuronal plasma membrane; assay type: in vitro ADME, chick; details: Plasma Membrane Suspension, 10 μmolar exposure
Text: Total lipids were removed from the neuron samples by repeated extraction with chloroforn:methanol (2:1, vol:vol). […] The recovered lysosphingolipids were stably tagged with NBDZF by the rapid procedure of Nozowa et al. (supra). The fluorescence tagged neuronal lysosphingolipids were separated in parallel with reference standards NBDZF-Sph, NBDZF-Psy, and NBDZF-Lsm on high performance silica gel thin layer chromatography plates with acetonitrile:H2 O (10:0.5, vol:vol). The highly fluorescent, well separated bands were scraped from the plate. The fluorescence tagged lysosphingolipids are eluted from the scraped silica gel with methanol:1 N HCl (1:0.02, vol:vol). The fluorescence tagged lysosphingolipid eluates were quantitated against reference standards by fluorescence measurement in a Perkin-Elmer LS-5 Fluorescence Spectrometer.
Physiologically active phospholipase C is present on the endofacial portion of the plasma membrane. A procedure for examining its activity in an intact membrane is provided. […] One hundred Petri dishes of cultured cortical neurons were incubated overnight with 50 μCi [^3 H]myo-inositol per mL of culture medium. […] The collected neurons were homogenized in 5 mL 0.32 M sucrose and centrifuged at 1000×g for 15 minutes. The supernatant was layered on top of 2 ml 1.2 M sucrose and centrifuged at 300,000×g for 20 minutes. The sedimented pellet was resuspended by sonication for 10 seconds in 50 mM Tris buffer (pH 7.4), containing 0.3 μM CaCl2, 1 mM MgCl2, and 0.01% ascorbic acid.
The suspended plasma membrane preparation was apportioned into 250 μl samples, each providing approximately 100 μg membrane protein. Sphingosine, psychosine, and lysosphingomyelin were added to each plasma membrane sample. […] Samples were analyzed for lysosphingolipid loading (i.e., membrane lysosphingolipid content following exposure to exogenous sphingolipid) by fluorescence tagging. […] Values are reported in pmoles lysosphingolipid/mg plasma membrane protein.

[4] = 10 μM lysocerebroside or 5 μM lysosphingomyelin
[5] = Quisqualate 225 nmoles ICV, rat
[6] = Quisqualate 250 nmoles ICV, rat

For `CCCCCCCCCCCCC/C=C/[C@@H](O)[C@@H](N)CO[C@@H]1O[C@H](CO)[C@H](O)[C@H](O)[C@H]1O` [psychosine, lysocerebroside], the “convulsant behavior, compound alone” value ([1]; 125 nmoles ICV, no quisqualate) was “displayed no convulsant behavior”, the effective dose ([1]; rat) was 125 nmol and the “BEHAVIORAL RESPONSE” value ([1]; Psychosine 25 nmoles ICV 30 minutes prior to Quisqualate 200 nmoles) was “Moderate convulsions, teeth chattering; also recorded: akinesia and hyperactivity”. For the same compound, the “BEHAVIORAL RESPONSE” value ([1]; Psychosine 50 nmoles ICV 30 minutes prior to Quisqualate 200 nmoles) was “Moderate convulsions, teeth chattering; also recorded: akinesia and hyperactivity”, the “BEHAVIORAL RESPONSE” value ([1]; Psychosine 100 nmoles ICV 30 minutes prior to Quisqualate 200 nmoles) was “Almost complete attenuation of Quisqualate; also recorded: some teeth chattering post-injection” and the “BEHAVIORAL RESPONSE” value ([1]; Psychosine 100 nmoles ICV 30 minutes prior to Quisqualate 250 nmoles) was “Moderate convulsions, teeth chattering; also recorded: akinesia. Quisqualate markedly reduced”. For the same compound, the “BEHAVIORAL RESPONSE” value ([1]; Psychosine 125 nmoles ICV 30 minutes prior to Quisqualate 200 nmoles) was “Complete attenuation of Quisqualate response”, the “BEHAVIORAL RESPONSE” value ([1]; Psychosine 125 nmoles ICV 30 minutes prior to Quisqualate 225 nmoles) was “Complete attenuation of Quisqualate response” and the “BEHAVIORAL RESPONSE” value ([1]; Psychosine 150 nmoles ICV 30 minutes prior to Quisqualate 250 nmoles) was “Almost complete attenuation of Quisqualate”. The “sedation produced by the lysosphingolipid” value ([1]; Psychosine 150 nmoles ICV, short term) was “sedation at this dose”, the “behavioral or neurotoxic effects of the compound itself” value ([1]; doses as high as 125 nmoles per animal ICV) was “no behavioral or neurotoxic effects were observed” and the “behavioral and histological changes caused by quisqualate” value ([1]; pretreated with 125 nmoles ICV, rat) was “absent”. For the same compound, the “number of convulsions or spasms” value ([1]; pretreatment 125 nmoles ICV 30 minutes before quisqualate 225 nmoles, n=6) was “significantly (p<01) attenuated”, the “diminution in Vmax” value [2, 4] was 60%±10% and the “increase in calcium ion concentration required for optimal activity” value [2, 4] was 5 fold. For the same compound, the “effect on KM for substrate phosphatidylinositol bis-phosphate” value ([2]; 10 μM sphingosine) was “no change”, the “membrane lysosphingolipid content, 0 hours of incubation” value [3] was 45 ± 5 pmoles lysosphingolipid/mg pla and the “membrane lysosphingolipid content, 0.5 hours of incubation” value [3] was 75 ± 20 pmoles lysosphingolipid/mg pla. The “membrane lysosphingolipid content, 1.0 hours of incubation” value [3] was 120 ± 15 pmoles lysosphingolipid/mg pla, the “membrane lysosphingolipid content, 2.0 hours of incubation” value [3] was 180 ± 15 pmoles lysosphingolipid/mg pla and the “membrane lysosphingolipid content, 3.0 hours of incubation” value [3] was 175 ± 20 pmoles lysosphingolipid/mg pla.
In the case of `CCCCCCCCCCCCC/C=C/[C@@H](O)[C@@H](N)CO` [sphingosine], the “calcium ion concentration required for optimal activity” value ([2]; 10 μM sphingosine) is reported as “decrease”, the “effect on KM for substrate phosphatidylinositol bis-phosphate” value ([2]; 10 μM sphingosine) is reported as “no effect” and the “membrane lysosphingolipid content, 0 hours of incubation” value [3] is reported as 105 ± 5 pmoles lysosphingolipid/mg pla. For the same compound, the “membrane lysosphingolipid content, 0.5 hours of incubation” value [3] was 113 ± 15 pmoles lysosphingolipid/mg pla, the “membrane lysosphingolipid content, 1.0 hours of incubation” value [3] was 140 ± 15 pmoles lysosphingolipid/mg pla and the “membrane lysosphingolipid content, 2.0 hours of incubation” value [3] was 165 ± 20 pmoles lysosphingolipid/mg pla. For the same compound, the “membrane lysosphingolipid content, 3.0 hours of incubation” value [3] was 175 ± 25 pmoles lysosphingolipid/mg pla.
In the case of `N[C@@H](Cn1oc(=O)[nH]c1=O)C(=O)O` [Quisqualate, quisqualate], the effective dose ([1]; rat) is reported as 225 nmol, the BEHAVIOR ([1]; Quisqualate 100 nmoles ICV, rat) is reported as “teeth chatter; also recorded: mild scratching; also recorded: hind leg weakness 60 minutes” and the “placement and clasp reflex score” value ([1]; Quisqualate 100 nmoles ICV, score zero is normal, 3 is severely abnormal) is reported as 0. The BEHAVIOR ([1]; Quisqualate 150 nmoles ICV, rat) was “teeth chatter; also recorded: localized twitches; also recorded: mild hyperactivity walking in circles; also recorded: hind leg weakness for 60 minutes”, the BEHAVIOR ([1]; Quisqualate 150 nmoles ICV, rat, listed as quisqualate) was “increase in activity and teeth chattering” and the “placement and clasp reflex score” value ([1]; Quisqualate 150 nmoles ICV, score zero is normal, 3 is severely abnormal) was 0. The BEHAVIOR ([1]; Quisqualate 200 nmoles ICV, rat) was “teeth chatter; also recorded: occasional mild convulsions; also recorded: hyperactivity - circle walking; also recorded: episodic akinesia/tonic immobility; also recorded: hind leg weakness”, the “limb clasp and placement reflex score” value ([1]; Quisqualate 200 nmoles ICV, score zero is normal, 3 is severely abnormal) was 0 and the BEHAVIOR [1, 5] was “teeth chatter; also recorded: hind leg paralysis; also recorded: hyperactivity/walk in circles; also recorded: full body convulsions - moderate; also recorded: localized spasms twitching/jerking; also recorded: episodic akinesia/tonic immobility; also recorded: respiratory distress; also recorded: foaming at mouth”. The “death, cases” value [1, 5] was 60%, the BEHAVIOR ([1]; Quisqualate 225 nmoles ICV, rat, listed as quisqualate) was “moderate convulsions” and the “placement and clasp reflex score” value ([1]; Quisqualate 225 nmoles ICV, score zero is normal, 3 is severely abnormal) was 1-2. For the same compound, the BEHAVIOR [1, 6] was “vocalization; also recorded: teeth chattering; also recorded: scratching; also recorded: localized spasms jerking/twitching; also recorded: full body convulsions-severe/repeated; also recorded: foaming at mouth; also recorded: respiratory distress”, the “death, cases” value [1, 6] was 75% and the BEHAVIOR ([1]; Quisqualate 250 nmoles ICV, rat, listed as quisqualate) was “severe convulsions and death”. For the same compound, the “placement and clasp reflex score” value ([1]; Quisqualate 250 nmoles ICV, score zero is normal, 3 is severely abnormal) was 3, the BEHAVIOR ([1]; Quisqualate 1 μmoles ICV, rat) was “severe repeated full body convulsions; also recorded: severe scratching; also recorded: severe teeth chattering; also recorded: foaming at mouth” and the time to death ([1]; Quisqualate 1 μmoles ICV, rat) was 5 to 15 min. The “death, cases” value ([1]; Quisqualate 1 μmoles ICV, rat) was 100%, the BEHAVIOR ([1]; Quisqualate 500 μmoles ICV, rat) was “vocalization” and the “duration of teeth chattering, akinesia and mobilization versus lysosphingolipid-alone groups and quisqualate + lysosphingomyelin 150 nmoles” value ([1]; quisqualate alone 225 nmoles ICV) was “significantly (p<.01) more time engaged in these behaviors”. The “number of convulsions/spasms compared to all other groups” value ([1]; quisqualate alone at 225 nmoles ICV, 2 hours observation, n=6) was “significantly (p.<01) more convulsions/spasms”.
